Experimental data reported in patent US20240018120A1, “MAGL INHIBITORS” (H. LUNDBECK A/S, priority 2020, published 2024).

Assays:
[1] = target: T1, MAGL (Rattus norvegicus, UniProt Q8R431); test: MAGL IC50 values marked (rat) in Table 1; type: biochemical; settings: cell marked (rat) in the human PC3 column
T1 sequence (Q8R431 1-303): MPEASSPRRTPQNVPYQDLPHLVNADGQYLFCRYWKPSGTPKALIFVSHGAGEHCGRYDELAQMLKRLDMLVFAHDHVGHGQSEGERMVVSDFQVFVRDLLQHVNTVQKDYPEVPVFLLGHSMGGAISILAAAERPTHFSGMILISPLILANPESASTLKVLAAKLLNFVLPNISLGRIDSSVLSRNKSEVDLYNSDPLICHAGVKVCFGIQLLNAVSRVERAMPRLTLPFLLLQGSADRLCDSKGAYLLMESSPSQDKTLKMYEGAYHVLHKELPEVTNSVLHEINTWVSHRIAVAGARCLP

[2] = target: T2, MAGL (Homo sapiens, UniProt Q99685); test: In vitro competitive activity-based protein profiling, PC3 human cell membrane proteomes; type: biochemical; parameters: endogenous in cells; host or cells: PC3 human cells (membrane proteome); settings: human PC3 membrane proteome
T2 sequence (Q99685 1-303): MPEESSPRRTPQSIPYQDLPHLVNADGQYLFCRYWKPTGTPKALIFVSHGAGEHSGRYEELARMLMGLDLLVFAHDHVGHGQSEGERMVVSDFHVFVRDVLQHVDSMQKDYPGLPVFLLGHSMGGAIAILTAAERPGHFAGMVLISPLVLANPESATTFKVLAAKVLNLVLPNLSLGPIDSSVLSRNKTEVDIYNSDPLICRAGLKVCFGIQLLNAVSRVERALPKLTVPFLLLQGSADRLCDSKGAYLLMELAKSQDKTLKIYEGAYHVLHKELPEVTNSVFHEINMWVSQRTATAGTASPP
Method in brief: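 Competitive ABPP in PC3 membrane proteome (2.0 mg/mL protein): inhibitors preincubated 30 min at 37° C, then JW912-Bodipy probe added for 30 min at room temperature. MAGL band fluorescence after SDS-PAGE normalised to DMSO; IC50 from 4-parameter sigmoidal fit.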

[3] = test system: rat formalin paw model of inflammatory pain; test: Rat formalin paw model of inflammatory pain; type: in vivo; settings: 4 h pre-test, vs vehicle
Description: In the rat formalin paw model formalin is administered into the right […] of a rat in order to induce pain (observed by hind limb licking duration and frequency).
Male Sprague Dawley rats were divided into three cohorts to enable testing in the Laboras™ equipment to be carried out over three days in a balanced design to give treatment groups of 10. On the day of the study, male Sprague Dawley rats were weighed, tail marked and dosed orally with vehicle, test compound (0.1, 0.3, 0.6, 1, 3 or 10 mg/kg) or pregabalin (30 mg/kg) 4 h pre-test using a 5 mL/kg dosing volume. For Example 6 the vehicle used was 0.5% methylcellulose in water and for Example 8 the vehicle used was 20% HP-b-CD. Up to six animals were dosed at a time. After 4 h, rats received an intraplantar injection of 50 μL of a 2.5% v/v formalin solution into the right hind paw. Rats were immediately placed into the Laboras™ cages and data acquisition started. The primary measures recorded by Laboras™ for the formalin paw model are hind limb licking duration and frequency. Locomotion is also reported as maximum speed, average speed when moving or over the whole-time bin and distance travelled. After 40 min, when data acquisition was complete, rats were removed from the cages.
On removal from the test cages, rats were anaesthetised with the gaseous anaesthetic isoflurane (5% v/v isoflurane in oxygen) and blood samples were collected by cardiac puncture. Brains were then removed, rinsed in phosphate buffered saline (PBS), hemi-sected and frozen separately in liquid nitrogen.
Data were analysed with Statistica software (TIBCO, USA version 11.1). All data are expressed as means±standard error of the mean (sem) to one decimal place. […] Time course data were analysed by repeated measures analysis of variance (ANOVA) followed by one-way ANOVAs at each time point and subsequent Dunnett's post hoc tests. […]

[4] = test system: cryopreserved human hepatocytes; test: In vitro human hepatocyte stability; type: in vitro ADME; settings: human hepatocytes 0.5×10^6 cells/mL, 1 μM
Description: The metabolic stability of test articles (1 μM) in commercially sourced, pooled donor, cryopreserved human hepatocytes (0.5×10^6 cells/mL) was determined in duplicate. The CLint reactions (250 μL) were initiated by addition of test compound. Aliquots (25 μL) were taken at 0, 15, 30, 45, 60, 90, 120 and 240 minutes and then protein crashed with ice-cold acetonitrile containing internal standard then centrifuged (3220 g for 25 minutes). Supernatant was used for LC-MS/MS analysis. The in vitro half-life (in vitro t½) was determined from the slope value: in vitro t1/2=−0.693/k. Conversion of the in vitro t1/2 (in min) into the scale-up unbound intrinsic clearance (Scaled-up unbound CLint, in mL/min/kg) was done using the following equation (mean of duplicate determinations), with data shown in Table 5: Scaled-up unbound CLint=kV/N×scaling factor. V=incubation volume (0.25 mL); N=number of hepatocytes per well ([…]). Scaling factors for in vivo intrinsic clearance prediction are listed below: […]

[5] = test system: kainic acid seizure model; test: Kainic acid seizure model in the rat; type: in vivo
Description: Kainic acid is an analog of the excitatory neurotransmitter, glutamate and acts as an agonist of kainic acid receptors. After systemic injection, kainic acid induces prolonged excitatory responses with many of the features of human temporal lobe epilepsy.
Rats, placed in individual Plexiglas cages (33×21×18 cm), are injected with kainic acid (20 mg/kg i.p.). The occurrences of the following symptoms are noted over a 120-minute period 30 minutes after kainic acid injection: forelimb clonus, rearings and rearings with falling, clonic convulsions, tonic convulsions and death. The presence of each symptom and the latencies to the first appearance of the symptoms are measured. The number of forelimb clonus is counted.
12 rats are studied per group. The test is performed partially blind.
The test substances will be evaluated at multiple doses, administered p.o. 240 minutes before the test, and compared with the corresponding vehicle control group (Group 2, administered with 10% HP-b-CD in distilled water, p.o. 240 minutes before the test).
Example 6 was evaluated at 0.3, 1, 3 and 10 mg/kg, and Example 8 was evaluated at 1, 3 and 10 mg/kg, administered p.o. 4 hours before the test, and compared with a vehicle control group (administered with 10% HP-b-CD, p.o. 4 hours before the test).
Diazepam (16 mg/kg) used as reference substance, was administered p.o. 60 minutes before the test (0.5% HP-b-CD) and was compared with vehicle controls.
Quantitative data (latencies) with the test substance was analyzed by comparing treated groups with vehicle control using Kruskal-Wallis test followed by Mann-Whitney U test. Quantitative data with the reference substance will be analysed using Mann-Whitney U test.
Quantal data (frequencies) were analyzed by comparing treated groups with vehicle control using Fisher's Exact Probability tests.

[6] = test system: maximal electroshock seizure threshold (MEST) model; test: Maximal electroshock seizure threshold (MEST) model in the rat; type: in vivo; settings: 10 mg/kg p.o., 240 min pre-treatment
Description: In the MEST model, a low-intensity electrical current of high frequency and short duration is applied to induce tonic convulsions.
Animals were randomly assigned to vehicle, compound treatment or Lamotrigine dose groups. Animals were dosed at 5 mL/kg according to treatment groups (n=12 or 16/group), with either vehicle (0.5% MC) p.o. for Example 6, vehicle (10% HP-b-CD) for Example 8, test compound at 10 mg/kg p.o. 240 min pre-treatment time, or Lamotrigine p.o. 360 min pre-treatment time. Rats were individually assessed for production of a tonic hind limb extensor seizure following a single corneally delivered electroshock of 0.3 second duration, using an ‘up and down method’ of shock titration (Kimball A W et al., 1957). Thus, the first rat within a treatment group was given a shock at the expected or estimated CC50 current (current producing tonic hind limb extensor seizures in 50% of animals). […] This procedure was continued for all rats within a treatment group. Induction of seizure was measured as an all-or-nothing effect scored as either present (+) or absent (0) for each animal. […]
Significant differences between drug-treated animals and controls were assessed according to Litchfield and Wilcoxon (1949) or One-Way ANOVA followed by Dunnett's multiple comparisons test.

SMILES	IC50 [1] [µM]	IC50 [2] [µM]	measure of spontaneous pain (hind limb licking frequency) ([3]; 0.3 mg/kg and 0.6 mg/kg oral, late phase)	measure of spontaneous pain (hind limb licking frequency) ([3]; 1 mg/kg, 3 mg/kg and 10 mg/kg oral, both early and late phases)	Scaled-up unbound CLint [4] [mL/min/kg]	anticonvulsant effects in the kainic acid seizure test ([5]; dose-range 1-10 mg/kg p.o., 4 hours before the test, rat)	magnitude of the effects in the kainic acid seizure test compared with reference ([5]; middle-high doses, reference Diazepam 16 mg/kg p.o.)	anticonvulsant activity in the MEST (seizure threshold CC50) [6]
N#Cc1ccc(NC(=O)C2CC23CCN(C(=O)OC(C(F)(F)F)C(F)(F)F)CC3)cn1 (racemic) [Example 189, 1,1,1,3,3,3-hexafluoropropan-2-yl (+)1-((6-cyanopyridin-3-yl)carbamoyl)-6-azaspiro[2.5]octane-6-carboxylate]	0.0033							
O=C(O)COc1ccc(NC(=O)C2CC23CCN(C(=O)OC(C(F)(F)F)C(F)(F)F)CC3)cn1 (single isomer, unassigned) [Example 183, (R or S)-2-((5-(6-(((1,1,1,3,3,3-hexafluoropropan-2-yl)oxy)carbonyl)-6-azaspiro[2.5]octane-1-carboxamido)pyridin-2-yl)oxy)acetic acid]	0.39							
O=C(NC1CCOCC1)[C@H]1CC12CCN(C(=O)OC(C(F)(F)F)C(F)(F)F)CC2 [Example 8, 1,1,1,3,3,3-Hexafluoropropan-2-yl (S)-1-((tetrahydro-2H-pyran-4-yl)carbamoyl)-6-azaspiro[2.5]octane-6-carboxylate]		0.0657	statistically significant reduction	statistically significant reduction	7.75	clear anticonvulsant effects	close to those observed with the reference substance, Diazepam	anticonvulsant activity
